According to US8911723B2, “Hybrid hydrogel scaffold compositions and methods of use” (Escape Therapeutics, Inc., priority 2010, dated 2014):
Entries after “also recorded” stand apart in the source; their conditions may differ.

Tests used:
[1] = test system: hAMSCs; assay: In vitro adipogenic differentiation of encapsulated hAMSCs (Oil Red O); assay type: cell-based, human
Text: (§1) hAMSCs were encapsulated in PO, EFK8, and EFK8-PO as above. Adipogenic or osteogenic differentiation was induced by culturing cells in adipogenic or osteogenic differentiation medium (AD-medium or OS-medium, respectively, Cell Applications, San Diego, Calif.) for 7 days or 14 days, respectively, according to our previously published method, which is hereby incorporated by reference, Zhao L et al., “TGF-beta 1 Induces Osteogenic Differentiation of Murine Bone Marrow Stromal Cells,” Tissue Eng Part A 2009, In press. Fresh induction media was added to every other day.
Red oil staining was used to confirm hAMSC adipogenic differentiation. Cells were washed with PBS and fixed with 10% formalin for 20 min. Cells were then washed twice with PBS, once with 60% isopropyl alcohol, stained with Oil Red O solution (Sigma-Aldrich) for 15 min, washed with PBS once more, and then observed by light field microscopy, Hata K et al., “A CCAAT/enhancer binding protein beta isoform, liver-enriched inhibitory protein, regulates commitment of osteoblasts and adipocytes,” Mol Cell Biol, 2005, 25(5):1971-1979, which is hereby incorporated by reference.

[2] = test system: hAMSCs in nude mice; assay: In vivo adipogenic differentiation of hydrogel-encapsulated hAMSCs injected subcutaneously; conditions: subcutaneous dorsal neck, 30 days post-injection
Experimental: All mouse experiments were conducted in accordance with the Guide for the Care and Use of Laboratory Animals and were approved by each Institution's respective Administrative Panel on Laboratory Animal Care. hAMSCs were encapsulated in PO, EFK8, and EFK8-PO hydrogels at a final concentration of 1×10^6 cells/ml and mixed gently in the hydrogels. PO and EFK8-PO were kept on ice to prevent premature gelation during the seeding process. Two hundred μL of each encapsulation was injected subcutaneously using 1 ml syringes into the dorsal neck area of female nude mice (8 weeks of age). Two hundred μL of PBS was used as a control. The nude mice were then allowed to recover, and then returned to their cages. After 30 days, mice were sacrificed using CO2 euthanasia and dorsal neck skin harvested immediately. […]
Specimens were frozen sectioned using either vertical or horizontal slices 5-10 μm thick, then post-fixed in 100% cold acetone at −20° C., blocked for 1 hr with goat serum and then incubated with the appropriate mouse anti-human nuclei monoclonal primary antibody (Chemicon, Billerica, Mass.) at the desired dilution (1:50 to 1:250) overnight at 4° C. Signal was detected using the Vectastain ABC Elite Mouse/Rabbit/Goat IgG detection kit (Vector Laboratories, Burlingame, Calif.) following the manufacturer's protocol. […]

[3] = Rheology, temperature sweep of hydrogels (AR-G2 rheometer); assay type: physicochemical; conditions: for lost modulus G″ / storage modulus G′: 1% w/v in PBS
Experimental: The viscoelastic properties of 3 hydrogels were investigated with a, AR-G2 rheometer (TA Instruments, New Castle, Del.). The parameters of temperature sweep were set as follows: range 4-40° C., change rate 5° C./min, strain 2%; frequency 1 Hz. Three parameters were recorded: 1) storage modulus G′ estimates the elastic component of mechanical strength, 2) lost modulus G″ estimates the viscous component of mechanical strength, and 3) phase difference Delta indicates the elastic or viscous property of a material. Zero degree of Delta implies a purely elastic material, while a purely viscous material has a Delta of 90 degrees. This same method can be used to analyze the viscoelastic properties of any of the scaffolds/hydrogels of the invention.
To determine the mechanical properties of PO, EFK8, and EFK8-PO hydrogels, we performed rheological analyses. The viscoelastic behaviors of EFK8 (1% w/v in PBS), PO (20% w/v in PBS), and EFK8-PO (20% w/v PO plus 1% w/v EFK8, both in PBS) hydrogels are illustrated in FIG. 1. At 25° C., G′ of EFK8 hydrogel was ˜10.5 Pa and G″ was ˜6.2 Pa. […] Phase difference Delta increased from 30 degrees to 70 degrees (FIG. 1A). […] EFK8 hydrogel was very weak and less viscous both at room temperature and 37° C. […] FIG. 1C illustrates the viscoelastic behavior of EFK8-PO.

[4] = test system: hAMSCs; assay: hAMSC morphology and distribution (aggregation) after encapsulation in hydrogels; assay type: cell-based, human; conditions: hAMSCs encapsulated in hydrogel
Experimental: Cells were encapsulated in the appropriate hydrogel by gently mixing hAMSCs with PO, EFK8, or EFK8-PO at a final concentration of 1×10^6 cells/ml. When seeding hAMSCs in PO or EFK8-PO, hydrogels were kept on ice to prevent premature gelation. Fifty μL of the aliquot of hydrogel/cell mixture was quickly transferred into a 96-well microplate. Encapsulated hAMSCs were then incubated at 37° C. for 5 min to induce gel formation. One hundred μL of DMEM medium was then added into each well. Fresh medium was changed 3 times within the first 30 min in order to neutralize the acidic pH of the hydrogels, and then changed every other day during culture. After various treatments described below and at the appropriate time points, a 1000 μL pipette tip was cut at its distal end to facilitate our ability to gently draw up 50 μL of encapsulated hAMSCs from the top of the well. Cells were then gently placed onto a slide to allow for examination under light field microscopy. This process was repeated 3 times per well, allowing for assessment of a total of 3 different depth layers (top, middle, and bottom) of the encapsulated cell mixture. This method of encapsulation can generally be used for encapsulating most cell-types in the scaffolds described herein. […]

[5] = Cell viability of hydrogel-encapsulated hAMSCs (trypan blue); assay type: cell-based; conditions: human, hAMSCs encapsulated in EFK8 hydrogel, through 14 days of culture, read-out: hAMSC viability
Experimental: hAMSCs were encapsulated in PO, EFK8, or EFK8-PO and cultured in a 37° C. humidified 5% CO2 incubator for 3 hrs, 1, 3, 6, 10, or 14 days. Fifty μL of cells was then mixed with an equal volume of 1% trypan blue and observed under light microscopy. Trypsin-EDTA (0.25%) was used to separate cells when cell aggregation occurred. Viability was calculated as the percentage of living cells over total cells.

[6] = test system: hAMSCs; assay: In vitro osteogenic differentiation of encapsulated hAMSCs (ALP, alizarin red S); assay type: cell-based, human; conditions: osteogenic differentiation medium, 14 days
Text: as §1
Alkaline Phosphatase (ALP) staining was used to detect mineralization in hAMSCs during osteogenic differentiation. After culturing encapsulated hAMSCs for 14 days in the various hydrogels, the medium was aspirated and cells were stained with StemTag ALP (Cell Biolabs, San Diego, Calif.) according to the manufacturer's protocol. Briefly, after washing twice with PBS, cells were exposed to fixing solution for 2 min, then washed again with PBS and incubated with StemTAG ALP staining solution for 30 min in the dark. ALP staining solution was aspirated and cells were then washed with PBS and observed under light microscopy. […]

[7] = test system: hAMSCs; assay: Cell surface marker expression of encapsulated hAMSCs (RT-PCR); assay type: cell-based, human; conditions: after 2 weeks of culture, data not shown
Text: hAMSCs were confirmed to meet the minimal criteria for defining multipotent MSCs according to previously described methods [Dominici et al., “Minimal criteria for defining multipotent mesenchymal stromal cells. The International Society for Cellular Therapy position statement,” Cytotherapy 2006; 8:315-7.]. First, hAMSCs were plastic-adherent when maintained in standard culture conditions using tissue culture flasks. […] Third, hAMSCs were able to differentiate to osteoblasts, adipocytes and chondroblasts under standard in vitro differentiating conditions.

[8] = test system: bleeding hand; assay: Hemostatic agent test on a bleeding hand; conditions: in vivo
Experimental: In one embodiment, the scaffolds can be used as a hemostatic agent. […] When a bleeding hand was treated with EFK8-PO, bleeding stopped at one minute. When a bleeding hand was treated with PO alone, the hand was still bleeding at 10 minutes.

[9] = test system: hAMSCs; assay: WST-1 Cell Proliferation assay of encapsulated hAMSCs; assay type: cell-based, human; conditions: days 1-4 of culture

- lost modulus G″ ([3]; 25° C.): ~6.2 Pa
- storage modulus G′ ([3]; 25° C.): ~10.5 Pa
- lost modulus G″ ([3]; 37° C.): 5 Pa
- storage modulus G′ ([3]; 37° C.): 2 Pa
- phase difference Delta ([3]; end of the increase (37° C.)): 70 degrees
- phase difference Delta ([3]; start of the increase (25° C.)): 30 degrees
Substance: Ac-KFEFKFEF-NH2 [EFK8, AcN-KFEFKFEF-CONH2]
- Adipogenic Oil-Red-O (% +) Day 4 ([1]; adipogenic differentiation medium, 4 days): 42±6%
- Adipogenic Oil-Red-O (% +) Day 7 ([1]; adipogenic differentiation medium, 7 days): 68±8%
- differentiation of encapsulated hAMSCs on induction medium (in words) ([1]; adipogenic or osteogenic induction medium): differentiated into adipocytes or osteoblasts
- new fat (adipose) tissue / hAMSC engraftment and adipogenic differentiation [2]: did not observe new adipose tissue
- Aggregation Day 3 ([4]; 3 days of culture): <3-5%
- Aggregation Day 10 ([4]; 10 days of culture): ~10%
- viability [5]: > 80%
- Osteogenic AP (% +) Day 14 [6]: 88±9%
- Osteogenic Alizarin Red (% +) Day 14 [6]: 54±7%
- cell surface marker expression pattern [7]: expressed CD73, CD90, and CD105 but were negative for CD14, CD19, CD34, CD45, and HLA class II
- effectiveness as a hemostatic agent (in words) [8]: also effective as a hemostatic agent
- hAMSC proliferation (WST-1) [9]: significantly increased hAMSC proliferation rates; also recorded: promote cell proliferation
